1 molecule from US6608088B1, “Use of donerezil for the treatment of functional and/or organic pain syndromes” (priority 1998, dated 2003) can be followed below.

Where a name gives a salt, the structure may show the parent alone.

The test system of data set [1] is primary fibromyalgia. Nature of the data set: Treatment of patients with primary fibromyalgia. In kind it is in vivo. As to conditions: 16 patients, same conditions as migraine tests (5 mg daily). From the text:
Systemic pain of muscles, tendons, viscera (oesophagus, stomach, colon); these syndromes are considered particularly difficult to hale.

In data set [2] the test system is pain syndromes caused by denervation or amputation. Nature of the data set: Treatment of patients with pain syndromes caused by denervation. In kind it is in vivo. As to conditions: five of nine patients, no advantage after antiinflammatory analgesics or opioids; same conditions as above (5 mg daily). The protocol: In the pain syndromes caused by denervation or amputation pain develops on the limb or body part which is denervated and therefore is insensible to nociceptive stimuli (“painful anaesthesia”).
Nine patients who had no advantages after treatment with antiinflammatory analgesica or opioids were tested in the same conditions as above described.

The conditions of data set [3]: human, in vivo.
In data set [4] the test system is migraine attacks longer than 72 h. Put plainly: Acute treatment of patients with migraine attacks longer than 72 h. In kind it is in vivo. The settings on record: 8 patients, 20 mg acutely given.

Consider `COc1cc2c(cc1OC)C(=O)C(CC1CCN(Cc3ccccc3)CC1)C2` (centres unmarked) [Donepezil hydrochloride, 1H-Inden-1-one, 2,3-dihydro-5,6-dimethoxy-2-[[1-(phenylmethyl)4-piperidinyl]methyl]-, hydrochloride], for which, in data set [1], the “cases treated with improvement of the patient's conditions” value worked out at 60% and the “cases with total disappearance of the pain” value amounted to 10%. The improvement of conditions in data set [2] is listed as 50-80%. Moreover, in data set [3], the “tolerance to the treatment” value was “high tolerance”. Besides, the “results of acute treatment of migraine attacks” value in data set [4] is “highly satisfactory”.
